From patent US20160264636A1, “PEPTIDE INHIBITORS OF TEAD/YAP-TAZ INTERACTION” (UNIVERSITE PIERRE ET MARIE CURIE (PARIS 6), priority 2013, published 2016)
Read-outs that look alike come from different tables or passages of the source.

What was measured:
Assay type in all cases: cell-based
[1] = tested on: ES2 cells; assay: MTT cytotoxicity assay, ES2; conditions: Table VIII, 72 h, MTT, 25% cell death
Procedure: (§1) The cytotoxicity of penetrating peptides or chemotherapeutic agents, alone or in combination, was evaluated by the (3-(4,5-dimethylthiazol-2-yl)-2,5-diphenyltetrazolium bromide) tetrazolium (MTT) reduction assay. The cells were seeded in 96-well plates (100 μL/well) at a cell density defined from growth curves. After 24 hours of incubation, cells were treated with the peptides for 72 hours. The wells were rinsed two times with RPMI. After washing, 10 μl of stock MTT solution (5 mg/ml; MTT (SIGMA #M-2128) in PBS Dubecco's 1× without Ca^2+ and Mg^2+) was added to a final volume of 100 μl of culture medium. Cell lines were incubated for additional 4 hours at 37° C. under humid atmosphere with 5% (v/v) CO2. The formation of blue formazan crystals was detected under a microscope. An equal volume of 10% SDS (MERCK, #926.238) in 10 mM HCl was added to each well and the plate was placed in the incubator overnight to dissolve formazan crystals. The plates were mixed to ensure complete solubilisation of formazan crystals and absorbance was measured at 570 nm and 620 nm. The percentage of viable cells was estimated using the formula: % cell viability=ΔOD(570-620) treated/ΔOD(570-620)control×100.
(§2) ES2, IGROV-1, OVCAR8 and SKOV3 cell lines come from human ovarian cancer.
(§3) Cell-penetrating peptides (CPPs) comprising the binding site of TEAD to TAZ or YAP or of YAP to TEAD (TAZ, TEAD and YAP peptides, respectively) were chemically synthesized. The effect of the peptides on cell viability was assayed on several human ovarian cancer cell lines. All the ovarian cancer cell lines were treated for 72 h with different peptide concentrations. Cytotoxicity was analysed as described in example 2.

[2] = tested on: SKOV3 cells; assay: MTT cytotoxicity assay, SKOV3; conditions: Table VIII, 72 h, MTT, 25% cell death
Procedure: as §1, §2, §3

[3] = tested on: IGROV-1 cells; assay: MTT cytotoxicity assay, IGROV; conditions: Table VIII, 72 h, MTT, 25% cell death
Procedure: as §1, §2, §3

[4] = tested on: OVCAR8 cells; assay: MTT cytotoxicity assay, OVCAR8; conditions: Table VIII, 72 h, MTT, 25% cell death
Procedure: as §1, §2, §3

[5] = tested on: A549 cells; conditions: for Letal Dose (μM) LD25: Table II, 72 h, MTT, 25% cell death
Procedure: (§4) H1650, H1975, H1299, A549 cell lines were cultured in DMEM medium supplemented with 10% of FCS. HBEC cell lines (wt and Ras V12) were cultured in KSFM supplemented with growth factors. All the cell lines come from human non small cell lung cancer (NSCLC).
as §1
(§5) Cell-penetrating peptides (CPPs) comprising the binding site of TEAD to TAZ or YAP or of YAP to TEAD (TAZ, TEAD and YAP peptides, respectively) were chemically synthesized. The effect of the peptides on cell viability was assayed on several human non small cell lung cancer (NSCLC) cell lines. All the lung cancer cell lines were treated for 72 h with different peptide concentrations. Cytotoxicity was analysed as described in Materials and Methods.

[6] = tested on: H1299 cells; conditions: for Letal Dose (μM) LD25: Table II, 72 h, MTT, 25% cell death
Procedure: as §4, §1, §5

[7] = tested on: H1650 cells; conditions: for Letal Dose (μM) LD25: Table II, 72 h, MTT, 25% cell death
Procedure: as §4, §1, §5

[8] = tested on: H1975 cells; conditions: for Letal Dose (μM) LD25: Table II, 72 h, MTT, 25% cell death
Procedure: as §4, §1, §5

[9] = tested on: HBEC RasV12 cells; conditions: for Letal Dose (μM) LD25: Table II, 72 h, MTT, 25% cell death
Procedure: as §4, §1, §5

[10] = tested on: HBEC wt cells; conditions: for Letal Dose (μM) LD25: Table II, HBEC WT, 72 h, MTT, 25% cell death; for Cell viability (%): HBEC wt
Procedure: as §4, §1, §5

[11] = Table III, drug alone vs its vehicle (HPCD10%, NaCl or Glucose 5%)
[12] = Table IV, drug alone vs its vehicle (Glucose 5% or NaCl)
[13] = Table V, drug alone vs its vehicle (Glucose 5% or NaCl)

Compound	Letal Dose (μM) LD25 [1]	Letal Dose (μM) LD25 [2]	Letal Dose (μM) LD25 [3]	Letal Dose (μM) LD25 [4]	Letal Dose (μM) LD25 [5]	Cell viability (%) [5, 11]	Cell viability (%) [5, 12]	Cell viability (%) [5, 13]	Letal Dose (μM) LD25 [6]	Cell viability (%) [6, 11]	Cell viability (%) [6, 12]	Cell viability (%) [6, 13]	Letal Dose (μM) LD25 [7]	Cell viability (%) [7, 11]	Cell viability (%) [7, 12]	Cell viability (%) [7, 13]	Letal Dose (μM) LD25 [8]	Cell viability (%) [8, 11]	Cell viability (%) [8, 12]	Cell viability (%) [8, 13]	further results
N.N.O=C([O-])C1(C(=O)[O-])CCC1.[Pt+2] [Carboplatin]	10 µM	18 µM	30 µM	30 µM																	
N.N.[Cl][Pt][Cl] [Cisplatin]					3 µM	−37.43%	−60.45%	−57.64%	30 µM	−57.12%	−73.62%	−95.42%	2 µM	−55.41%	−77.26%	−83.01%	30 µM	−76.57%	−85.91%	−97.93%	Letal Dose (μM) LD25 [9]: 1 µM; Cell viability (%) [9, 11]: −44.42%; Cell viability (%) [9, 12]: −55.51%; Cell viability (%) [9, 13]: −89.58%; Letal Dose (μM) LD25 [10]: 2 µM; Cell viability (%) [10, 11]: −21.45%; Cell viability (%) [10, 12]: −77.04%; Cell viability (%) [10, 13]: −77.96%
CC(=O)O[C@@]12CO[C@@H]1C[C@H](O)[C@@]1(C)C(=O)[C@H](O)C3=C(C)[C@@H](OC(=O)[C@H](O)[C@@H](NC(=O)OC(C)(C)C)c4ccccc4)C[C@@](O)([C@@H](OC(=O)c4ccccc4)[C@H]21)C3(C)C [Docetaxel]					0.0002 µM	11.73%	−49.02%	−39.31%	0.007 µM	−10.53%	−72.38%	−89.07%	0.0001 µM	23.41%	−41.32%	0.1681%	0.0008 µM	5.931%	−92.17%	−79.23%	Letal Dose (μM) LD25 [9]: 0.0002 µM; Cell viability (%) [9, 11]: 15.19%; Cell viability (%) [9, 12]: −88.64%; Cell viability (%) [9, 13]: −95.93%; Letal Dose (μM) LD25 [10]: 0.0002 µM; Cell viability (%) [10, 11]: 25.93%; Cell viability (%) [10, 12]: −54.02%; Cell viability (%) [10, 13]: −2.578%
CC(=O)O[C@H]1C(=O)[C@@]2(C)[C@H]([C@H](OC(=O)c3ccccc3)[C@]3(O)C[C@H](OC(=O)[C@H](O)[C@@H](NC(=O)c4ccccc4)c4ccccc4)C(C)=C1C3(C)C)[C@]1(OC(C)=O)CO[C@@H]1C[C@@H]2O [Paclitaxel]	0.004 µM	0.005 µM	0.002 µM	0.003 µM																	
